# pKi: −log10 of the molar value.
# Assays:
# Assay in all cases: Caliper, Mobility shift assay off-chip
# RPS6KA3 KD1 KD2 (human) = RPS6KA3 KD1 KD2 (human) (UniProt P51812)
# SLK (human) = SLK (human) (UniProt Q9H2G2)
# WNK2 (human) = WNK2 (human) (UniProt Q9Y3S1)
# PDPK1 (human) = PDPK1 (human) (UniProt O15530)
# STK4 (human) = STK4 (human) (UniProt Q13043)
# PRKACB (human) = PRKACB (human) (UniProt P22694)
# CAMK2D (human) = CAMK2D (human) (UniProt Q13557)
# DYRK3 (human) = DYRK3 (human) (UniProt O43781)
# TYK2 JH1 JH2 (human) = TYK2 JH1 JH2 (human) (UniProt P29597)
# TNK1 (human) = TNK1 (human) (UniProt Q13470)
# TNK1 (human), sequence (Q13470 whole entry, looked up): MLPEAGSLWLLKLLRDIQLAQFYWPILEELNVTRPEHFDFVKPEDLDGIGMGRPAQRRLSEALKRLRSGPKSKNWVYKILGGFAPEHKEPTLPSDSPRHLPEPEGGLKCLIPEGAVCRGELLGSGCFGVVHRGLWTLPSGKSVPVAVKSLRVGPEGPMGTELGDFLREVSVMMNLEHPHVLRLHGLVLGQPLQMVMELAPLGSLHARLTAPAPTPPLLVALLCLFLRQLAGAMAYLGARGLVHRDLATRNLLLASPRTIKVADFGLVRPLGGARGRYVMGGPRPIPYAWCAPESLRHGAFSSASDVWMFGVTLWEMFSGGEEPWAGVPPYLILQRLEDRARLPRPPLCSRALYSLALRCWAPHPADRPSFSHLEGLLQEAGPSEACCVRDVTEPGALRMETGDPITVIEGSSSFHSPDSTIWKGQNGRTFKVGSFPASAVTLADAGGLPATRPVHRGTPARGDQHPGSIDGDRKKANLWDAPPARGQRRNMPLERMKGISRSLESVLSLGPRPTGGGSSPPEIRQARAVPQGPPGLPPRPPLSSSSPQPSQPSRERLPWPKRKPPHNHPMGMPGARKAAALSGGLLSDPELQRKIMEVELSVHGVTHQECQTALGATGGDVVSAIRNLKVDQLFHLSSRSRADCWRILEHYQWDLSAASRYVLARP
# MAPK14 (human) = MAPK14 (human) (UniProt Q16539)
# FYN (human) = FYN (human) (UniProt P06241)
# EPHB1 (human) = EPHB1 (human) (UniProt P54762)
# BRSK1 (human) = BRSK1 (human) (UniProt Q8TDC3)
# STK38 (human) = STK38 (human) (UniProt Q15208)
# MINK1 (human) = MINK1 (human) (UniProt Q8N4C8)
# MAPKAPK3 (human) = MAPKAPK3 (human) (UniProt Q16644)
# FLT1 (human) = FLT1 (human) (UniProt P17948)
# AURKB (human) = AURKB (human) (UniProt Q96GD4)
# CSNK1A1 (human) = CSNK1A1 (human) (UniProt P48729)
# SRMS (human) = SRMS (human) (UniProt Q9H3Y6)
# SRMS (human), sequence (Q9H3Y6 whole entry, looked up): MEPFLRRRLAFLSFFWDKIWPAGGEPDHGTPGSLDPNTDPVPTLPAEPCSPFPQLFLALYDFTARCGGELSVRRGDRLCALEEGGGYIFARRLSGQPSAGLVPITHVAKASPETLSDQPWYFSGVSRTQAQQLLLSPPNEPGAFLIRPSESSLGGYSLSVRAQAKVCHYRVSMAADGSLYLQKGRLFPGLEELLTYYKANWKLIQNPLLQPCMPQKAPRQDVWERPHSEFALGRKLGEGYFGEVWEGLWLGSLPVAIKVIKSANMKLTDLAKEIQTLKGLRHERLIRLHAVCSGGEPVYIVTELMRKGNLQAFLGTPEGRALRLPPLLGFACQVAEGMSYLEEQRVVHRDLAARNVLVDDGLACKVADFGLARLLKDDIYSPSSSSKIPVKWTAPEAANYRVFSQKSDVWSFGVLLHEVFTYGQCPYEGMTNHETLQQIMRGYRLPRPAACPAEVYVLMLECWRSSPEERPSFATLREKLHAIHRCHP
# TAB1 (human) = TAB1 (human) (UniProt Q15750)
# WNK1 (human) = WNK1 (human) (UniProt Q9H4A3)
# PRKCZ (human) = PRKCZ (human) (UniProt Q05513)
# SGK2 (human) = SGK2 (human) (UniProt Q9HBY8)
# PRKCE (human) = PRKCE (human) (UniProt Q02156)
# PRKCE (human), sequence (Q02156 whole entry, looked up): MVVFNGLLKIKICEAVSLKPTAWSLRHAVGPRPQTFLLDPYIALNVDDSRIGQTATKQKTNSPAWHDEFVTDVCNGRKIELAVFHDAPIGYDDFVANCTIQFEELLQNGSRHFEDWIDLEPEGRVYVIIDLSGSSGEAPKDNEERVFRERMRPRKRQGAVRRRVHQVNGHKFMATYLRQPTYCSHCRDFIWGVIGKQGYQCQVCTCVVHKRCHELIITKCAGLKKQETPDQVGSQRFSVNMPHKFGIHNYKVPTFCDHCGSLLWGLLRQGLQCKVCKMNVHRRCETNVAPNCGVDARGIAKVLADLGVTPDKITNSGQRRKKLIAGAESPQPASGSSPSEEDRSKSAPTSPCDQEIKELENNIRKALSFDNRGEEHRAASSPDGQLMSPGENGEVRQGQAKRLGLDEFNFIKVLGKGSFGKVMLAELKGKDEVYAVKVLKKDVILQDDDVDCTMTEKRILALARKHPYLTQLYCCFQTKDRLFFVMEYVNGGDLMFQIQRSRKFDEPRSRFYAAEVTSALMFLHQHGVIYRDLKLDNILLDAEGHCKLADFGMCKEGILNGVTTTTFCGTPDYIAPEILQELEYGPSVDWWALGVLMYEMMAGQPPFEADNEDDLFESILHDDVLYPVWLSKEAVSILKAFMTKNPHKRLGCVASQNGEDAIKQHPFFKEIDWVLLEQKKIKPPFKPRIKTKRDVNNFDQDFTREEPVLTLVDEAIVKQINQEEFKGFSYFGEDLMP
# DCLK2 (human) = DCLK2 (human) (UniProt Q8N568)
# TSSK3 (human) = TSSK3 (human) (UniProt Q96PN8)
# TSSK3 (human), sequence (Q96PN8 whole entry, looked up): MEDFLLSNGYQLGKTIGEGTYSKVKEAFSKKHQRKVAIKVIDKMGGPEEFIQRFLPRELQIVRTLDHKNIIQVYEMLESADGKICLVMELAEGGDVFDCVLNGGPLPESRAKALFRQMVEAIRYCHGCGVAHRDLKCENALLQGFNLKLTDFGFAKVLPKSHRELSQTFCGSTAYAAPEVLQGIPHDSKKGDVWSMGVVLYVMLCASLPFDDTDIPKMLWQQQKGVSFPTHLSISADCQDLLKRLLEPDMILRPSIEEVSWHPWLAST
# SRC (human) = SRC (human) (UniProt P12931)
# RPS6KB1 (human) = RPS6KB1 (human) (UniProt P23443)
# RPS6KB1 (human), sequence (P23443 whole entry, looked up): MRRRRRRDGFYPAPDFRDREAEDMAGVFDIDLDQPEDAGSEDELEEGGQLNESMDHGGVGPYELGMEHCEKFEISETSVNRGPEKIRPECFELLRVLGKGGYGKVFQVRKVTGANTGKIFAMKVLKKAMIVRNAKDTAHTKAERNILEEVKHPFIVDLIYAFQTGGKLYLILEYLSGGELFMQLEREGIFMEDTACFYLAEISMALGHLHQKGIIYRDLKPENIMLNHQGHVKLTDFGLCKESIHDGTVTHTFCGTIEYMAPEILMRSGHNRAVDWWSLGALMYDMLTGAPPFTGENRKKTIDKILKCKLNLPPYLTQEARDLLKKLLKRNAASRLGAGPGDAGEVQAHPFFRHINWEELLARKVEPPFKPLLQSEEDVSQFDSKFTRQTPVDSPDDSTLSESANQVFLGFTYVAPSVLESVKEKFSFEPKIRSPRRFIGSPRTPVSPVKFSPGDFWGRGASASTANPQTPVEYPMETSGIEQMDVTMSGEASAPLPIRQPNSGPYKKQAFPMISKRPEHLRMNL
# CDK3 (human) = CDK3 (human) (UniProt Q00526)
# CDK3 (human), sequence (Q00526 whole entry, looked up): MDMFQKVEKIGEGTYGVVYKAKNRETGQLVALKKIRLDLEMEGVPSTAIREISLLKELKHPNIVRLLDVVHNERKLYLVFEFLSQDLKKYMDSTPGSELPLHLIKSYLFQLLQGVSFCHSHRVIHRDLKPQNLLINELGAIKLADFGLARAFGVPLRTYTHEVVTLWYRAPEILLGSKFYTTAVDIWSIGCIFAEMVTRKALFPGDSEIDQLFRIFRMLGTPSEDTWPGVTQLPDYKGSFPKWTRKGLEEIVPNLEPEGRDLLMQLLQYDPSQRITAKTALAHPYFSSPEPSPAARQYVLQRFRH
# SRPK3 (human) = SRPK3 (human) (UniProt Q9UPE1)
# ERBB4 (human) = ERBB4 (human) (UniProt Q15303)
# ERBB4 (human), sequence (Q15303 whole entry, looked up): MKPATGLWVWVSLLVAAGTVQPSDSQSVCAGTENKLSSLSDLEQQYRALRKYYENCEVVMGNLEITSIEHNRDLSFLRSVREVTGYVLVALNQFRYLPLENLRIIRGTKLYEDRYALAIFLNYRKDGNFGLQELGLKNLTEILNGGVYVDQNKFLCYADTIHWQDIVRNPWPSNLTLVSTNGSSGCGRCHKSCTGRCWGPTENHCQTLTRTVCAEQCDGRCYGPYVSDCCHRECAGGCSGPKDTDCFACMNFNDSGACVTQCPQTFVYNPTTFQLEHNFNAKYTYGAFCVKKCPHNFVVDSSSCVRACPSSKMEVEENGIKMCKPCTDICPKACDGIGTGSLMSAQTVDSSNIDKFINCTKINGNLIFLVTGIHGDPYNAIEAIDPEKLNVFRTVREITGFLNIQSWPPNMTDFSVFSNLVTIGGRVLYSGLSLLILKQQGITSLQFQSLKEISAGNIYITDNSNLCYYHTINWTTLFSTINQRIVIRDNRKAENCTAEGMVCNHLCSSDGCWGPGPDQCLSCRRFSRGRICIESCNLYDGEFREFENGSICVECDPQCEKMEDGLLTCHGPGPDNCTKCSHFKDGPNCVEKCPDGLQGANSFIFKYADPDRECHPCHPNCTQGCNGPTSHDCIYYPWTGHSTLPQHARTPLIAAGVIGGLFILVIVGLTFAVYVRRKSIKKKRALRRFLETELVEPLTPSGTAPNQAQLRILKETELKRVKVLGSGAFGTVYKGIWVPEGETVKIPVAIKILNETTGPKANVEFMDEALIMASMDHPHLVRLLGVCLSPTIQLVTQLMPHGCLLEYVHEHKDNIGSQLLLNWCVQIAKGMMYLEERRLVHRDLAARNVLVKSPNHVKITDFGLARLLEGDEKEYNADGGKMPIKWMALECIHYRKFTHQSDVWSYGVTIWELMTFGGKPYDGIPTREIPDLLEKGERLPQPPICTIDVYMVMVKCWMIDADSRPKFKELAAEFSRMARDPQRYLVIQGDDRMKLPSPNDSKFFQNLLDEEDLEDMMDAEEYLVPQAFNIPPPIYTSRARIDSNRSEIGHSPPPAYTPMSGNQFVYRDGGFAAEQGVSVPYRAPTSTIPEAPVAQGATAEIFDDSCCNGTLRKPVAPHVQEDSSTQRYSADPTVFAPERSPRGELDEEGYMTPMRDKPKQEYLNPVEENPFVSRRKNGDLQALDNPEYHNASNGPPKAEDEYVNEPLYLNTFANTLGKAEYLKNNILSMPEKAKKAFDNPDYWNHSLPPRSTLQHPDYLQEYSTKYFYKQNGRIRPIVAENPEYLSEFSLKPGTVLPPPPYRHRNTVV
# SGK3 (human) = SGK3 (human) (UniProt Q96BR1)
# CAMK2D (human), sequence (Q13557 whole entry, looked up): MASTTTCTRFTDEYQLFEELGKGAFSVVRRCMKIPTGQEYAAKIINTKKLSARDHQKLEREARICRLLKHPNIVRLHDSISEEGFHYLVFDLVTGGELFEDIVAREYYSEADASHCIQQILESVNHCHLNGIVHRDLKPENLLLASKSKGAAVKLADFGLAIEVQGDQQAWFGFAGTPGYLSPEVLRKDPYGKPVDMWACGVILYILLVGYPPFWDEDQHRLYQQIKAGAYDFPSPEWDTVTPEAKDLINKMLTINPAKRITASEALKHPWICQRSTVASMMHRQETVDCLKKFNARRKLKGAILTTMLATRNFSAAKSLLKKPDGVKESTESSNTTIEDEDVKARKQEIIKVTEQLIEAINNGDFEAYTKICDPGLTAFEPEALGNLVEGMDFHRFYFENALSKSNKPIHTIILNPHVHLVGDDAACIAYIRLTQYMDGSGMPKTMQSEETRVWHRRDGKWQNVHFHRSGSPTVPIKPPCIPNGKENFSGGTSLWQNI
compound,measurement,setting,value
COc1cc2c(Oc3ccc4[nH]c(C)cc4c3F)ncnc2cc1OCCCN1CCCC1,inhibition,RPS6KA3 KD1 KD2 (human); compound 0.02 µM,0.1%
same,inhibition,RPS6KA3 KD1 KD2 (human); compound 0.2 µM,-1.8%
same,inhibition,SLK (human); compound 0.02 µM,37.5%
same,inhibition,SLK (human); compound 0.2 µM,85%
same,inhibition,WNK2 (human); compound 0.02 µM,3.8%
same,inhibition,WNK2 (human); compound 0.2 µM,2.8%
same,inhibition,PDPK1 (human); compound 0.02 µM,-2.1%
same,inhibition,PDPK1 (human); compound 0.2 µM,-4.8%
same,inhibition,STK4 (human); compound 0.02 µM,-4.5%
same,inhibition,STK4 (human); compound 0.2 µM,9%
same,inhibition,PRKACB (human); compound 0.02 µM,6.8%
same,inhibition,PRKACB (human); compound 0.2 µM,-7.7%
same,inhibition,CAMK2D (human); compound 0.02 µM,3.9%
same,inhibition,CAMK2D (human); compound 0.2 µM,3.9%
same,inhibition,DYRK3 (human); compound 0.02 µM,-7.2%
same,inhibition,DYRK3 (human); compound 0.2 µM,-7.9%
same,inhibition,TYK2 JH1 JH2 (human); compound 0.02 µM,4.8%
same,inhibition,TYK2 JH1 JH2 (human); compound 0.2 µM,2.2%
same,inhibition,TNK1 (human); compound 0.02 µM,-2.8%
same,inhibition,TNK1 (human); compound 0.2 µM,-1.2%
same,inhibition,MAPK14 (human); compound 0.02 µM,-4.9%
same,inhibition,MAPK14 (human); compound 0.2 µM,-4.9%
same,inhibition,FYN (human); compound 0.02 µM,13.7%
same,inhibition,FYN (human); compound 0.2 µM,35.9%
same,inhibition,EPHB1 (human); compound 0.02 µM,-7.8%
same,inhibition,EPHB1 (human); compound 0.2 µM,-0.3%
same,inhibition,BRSK1 (human); compound 0.02 µM,2.2%
same,inhibition,BRSK1 (human); compound 0.2 µM,7.5%
same,inhibition,STK38 (human); compound 0.02 µM,9.6%
same,inhibition,STK38 (human); compound 0.2 µM,-1.9%
same,inhibition,MINK1 (human); compound 0.02 µM,3.5%
same,inhibition,MINK1 (human); compound 0.2 µM,2.9%
same,inhibition,MAPKAPK3 (human); compound 0.02 µM,1.1%
same,inhibition,MAPKAPK3 (human); compound 0.2 µM,-0.2%
same,inhibition,FLT1 (human); compound 0.02 µM,91.6%
same,inhibition,FLT1 (human); compound 0.2 µM,102%
same,inhibition,AURKB (human); compound 0.02 µM,4.5%
same,inhibition,AURKB (human); compound 0.2 µM,8.3%
same,inhibition,CSNK1A1 (human); compound 0.02 µM,-5.9%
same,inhibition,CSNK1A1 (human); compound 0.2 µM,-7.9%
same,inhibition,SRMS (human); compound 0.02 µM,-0.7%
same,inhibition,SRMS (human); compound 0.2 µM,-1.7%
same,inhibition,TAB1 (human); compound 0.02 µM,5.3%
same,inhibition,TAB1 (human); compound 0.2 µM,8.9%
same,inhibition,WNK1 (human); compound 0.02 µM,4.8%
same,inhibition,WNK1 (human); compound 0.2 µM,2.6%
same,inhibition,PRKCZ (human); compound 0.02 µM,10.1%
same,inhibition,PRKCZ (human); compound 0.2 µM,1.5%
same,inhibition,SGK2 (human); compound 0.02 µM,4.4%
same,inhibition,SGK2 (human); compound 0.2 µM,3.9%
same,inhibition,PRKCE (human); compound 0.02 µM,7.2%
same,inhibition,PRKCE (human); compound 0.2 µM,-3%
same,inhibition,DCLK2 (human); compound 0.02 µM,-1.8%
same,inhibition,DCLK2 (human); compound 0.2 µM,-0.5%
same,inhibition,TSSK3 (human); compound 0.02 µM,0.6%
same,inhibition,TSSK3 (human); compound 0.2 µM,12.5%
same,pKi,SRC (human),7.08
same,inhibition,SRC (human); compound 0.2 µM,58.1%
same,inhibition,RPS6KB1 (human); compound 0.02 µM,8.1%
same,inhibition,RPS6KB1 (human); compound 0.2 µM,8.6%
same,inhibition,CDK3 (human); compound 0.02 µM,-3.3%
same,inhibition,CDK3 (human); compound 0.2 µM,-1.1%
same,inhibition,SRPK3 (human); compound 0.02 µM,-3.4%
same,inhibition,SRPK3 (human); compound 0.2 µM,0.3%
same,inhibition,ERBB4 (human); compound 0.02 µM,17.2%
same,inhibition,ERBB4 (human); compound 0.2 µM,49.8%
same,inhibition,SGK3 (human); compound 0.02 µM,8.5%
same,inhibition,SGK3 (human); compound 0.2 µM,1.9%

# Source: the kinase profiling compilation of Christmann-Franck et al. (2016)
